Laboratory results taken from patent US20210323977A1, “PYRROLIDINYL AMIDE COMPOUNDS FOR THE TREATMENT OF AUTOIMMUNE DISEASE” (Hoffmann-La Roche Inc., priority 2018, published 2021).

Each compound was assayed against T1, human TLR7 (Homo sapiens, UniProt Q9NYK1) (assay: HEK293-Blue-hTLR-7 cells assay). Conditions: HEK293-Blue-hTLR7 cells, SEAP reporter, R848 stimulation, 20 hrs.
T1 sequence (Q9NYK1 27-1049): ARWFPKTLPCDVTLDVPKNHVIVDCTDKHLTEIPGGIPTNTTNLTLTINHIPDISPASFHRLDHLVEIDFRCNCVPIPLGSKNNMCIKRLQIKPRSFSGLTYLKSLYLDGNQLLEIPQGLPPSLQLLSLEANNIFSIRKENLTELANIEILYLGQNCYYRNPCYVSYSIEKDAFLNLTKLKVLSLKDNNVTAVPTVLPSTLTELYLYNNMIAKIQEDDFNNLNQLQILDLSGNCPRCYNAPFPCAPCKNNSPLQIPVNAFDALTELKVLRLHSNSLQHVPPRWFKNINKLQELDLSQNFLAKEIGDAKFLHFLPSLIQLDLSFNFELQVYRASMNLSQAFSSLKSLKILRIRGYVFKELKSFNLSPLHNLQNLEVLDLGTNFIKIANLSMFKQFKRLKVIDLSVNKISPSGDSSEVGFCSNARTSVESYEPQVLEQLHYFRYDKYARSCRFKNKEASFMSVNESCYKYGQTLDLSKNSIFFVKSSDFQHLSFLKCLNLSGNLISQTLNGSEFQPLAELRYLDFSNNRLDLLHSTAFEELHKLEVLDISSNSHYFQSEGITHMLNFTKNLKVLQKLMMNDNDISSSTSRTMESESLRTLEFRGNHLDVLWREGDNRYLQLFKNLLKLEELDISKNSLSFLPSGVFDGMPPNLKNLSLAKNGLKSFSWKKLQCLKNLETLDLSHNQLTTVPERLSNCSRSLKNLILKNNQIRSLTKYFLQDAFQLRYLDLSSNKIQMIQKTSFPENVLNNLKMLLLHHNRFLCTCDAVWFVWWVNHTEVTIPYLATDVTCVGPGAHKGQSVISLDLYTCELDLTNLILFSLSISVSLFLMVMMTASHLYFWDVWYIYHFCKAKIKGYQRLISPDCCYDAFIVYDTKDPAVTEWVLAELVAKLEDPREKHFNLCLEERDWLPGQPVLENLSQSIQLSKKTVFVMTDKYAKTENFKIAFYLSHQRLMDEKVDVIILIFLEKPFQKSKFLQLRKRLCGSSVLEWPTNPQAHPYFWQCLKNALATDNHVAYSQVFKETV
Type: cell-based
Description: HEK293-Blue-hTLR-7 Cells Assay:
A stable HEK293-Blue-hTLR-7 cell line was purchased from InvivoGen (Cat. #: hkb-htlr7, San Diego, Calif., USA). These cells were originally designed for studying the stimulation of human TLR7 by monitoring the activation of NF-κB. A SEAP (secreted embryonic alkaline phosphatase) reporter gene was placed under the control of the IFN-β minimal promoter fused to five NF-κB and AP-1-binding sites. The SEAP was induced by activating NF-κB and AP-1 via stimulating HEK-Blue hTLR7 cells with TLR7 ligands. Therefore the reporter expression was declined by TLR7 antagonist under the stimulation of a ligand, such as R848 (Resiquimod), for incubation of 20 hrs. The cell culture supernatant SEAP reporter activity was determined using QUANTI-Blue™ kit (Cat. #: rep-qb1, Invivogen, San Diego, Ca, USA) at a wavelength of 640 nm, a detection medium that turns purple or blue in the presence of alkaline phosphatase.
HEK293-Blue-hTLR7 cells were incubated at a density of 250,000˜450,000 cells/mL in a volume of 170 μL in a 96-well plate in Dulbecco's Modified Eagle's medium (DMEM) containing 4.5 g/L glucose, 50 U/mL penicillin, […], […], 2 mM L-glutamine, 10% (v/v) heat-inactivated fetal bovine serum with addition of 20 sL test compound in a serial dilution in the presence of final DMSO at 1% and 10 μL of 20 uM R848 in above DMEM, perform incubation under 37° C. in a CO2 incubator for 20 hrs. Then 20 μL of the supernatant from each well was incubated with 180 sL Quanti-blue substrate solution at 37° C. for 2 hrs and the absorbance was read at 620-655 nm using a spectrophotometer. The signalling pathway that TLR7 activation leads to downstream NF-κB activation has been widely accepted, and therefore similar reporter assay was modified for evaluating TLR7 antagonist.
Compound `N#Cc1ccc(N2CC(C(=O)NCC3CNCCO3)C3(CC3)C2)c2nccnc12` (centres unmarked) [Example 13, 5-(8-Cyanoquinoxalin-5-yl)-N-(morpholin-2-ylmethyl)-5-azaspiro[2.4]heptane-7-carboxamide] has an IC50 of 0.018 µM.
`N[C@H]1CC[C@H](NC(=O)C2CN(c3ccc(C(F)(F)F)c4nccnc34)CC23CC3)CC1` (some centres unmarked) [Example 24, N-(4-aminocyclohexyl)-5-[8-(trifluoromethyl)quinoxalin-5-yl]-5-azaspiro[2.4]heptane-7-carboxamide] was tested, and the IC50 was 0.029 µM.
With `NC1CC(CNC(=O)C2CN(c3ccc(C(F)(F)F)c4nccnc34)CC23CC3)C1` (centres unmarked) [Example 31, N-[(3-aminocyclobutyl)methyl]-5-[8-(trifluoromethyl)quinoxalin-5-yl]-5-azaspiro[2.4]heptane-7-carboxamide] the IC50 was 0.041 µM.
For `N#Cc1ccc(N2CC(C(=O)NC3CCCNCC3)C(C(F)(F)F)C2)c2cccnc12` (single isomer, unassigned) [Example 30B, N-(azepan-4-yl)-1-(8-cyano-5-quinolyl)-4-(trifluoromethyl)pyrrolidine-3-carboxamide], the IC50 was 0.05 µM.
`CN1CCC(NC(=O)C2CN(c3ccc(C#N)c4ncccc34)CC23CC3)CC1` (single isomer, unassigned) [Example 41A, 5-(8-Cyano-5-quinolyl)-N-(1-methyl-4-piperidyl)-5-azaspiro[2.4]heptane-7-carboxamide] was tested, and the IC50 was 0.079 µM.
